The values that follow come from ChEMBL document CHEMBL4184112, “Spiroorthoester group-containing pregnane glycosides from the root barks of Periploca chrysantha and their inhibitory activities against the proliferation of B and T lymphocytes” (Bioorg Med Chem Lett, 2018).

By CC50 is commonly meant the concentration at which the toxic effect on the cells reaches its halfway point. Broadly, the IC50 is the point on the concentration scale where inhibition reaches its midpoint. Read a high IC50 as a need for much substance.

Series [1] is described as follows: Cytotoxicity against lymphocytes (unknown origin) assessed as decrease in cell viability. The series is classed as cell-based, Lymphocyte.
A short description of series [2]: Inhibition of LPS-induced B lymphocytes (unknown origin) proliferation. The series is classed as functional.
Series [3] is described as follows: Selectivity index, ratio of CC50 for lymphocytes (unknown origin) to IC50 for LPS-induced B lymphocytes (unknown origin) proliferation. The series is classed as toxicity. The following applies: read-out: Ratio CC50/IC50.
A further series has as its system T-cell. In words: Inhibition of ConA-induced T lymphocytes (unknown origin) proliferation. The series is classed as functional, cell-based.
Series [4] is described as follows: Selectivity index, ratio of CC50 for lymphocytes (unknown origin) to IC50 for ConA-induced T lymphocytes (unknown origin) proliferation. The series is classed as toxicity. Conditions: read-out: Ratio CC50/IC50.

Take `CO[C@H]1[C@@H](O)[C@@H](C)O[C@@H](O[C@H]2[C@@H](OC)C[C@H](O[C@H]3[C@H](O)C[C@H](O[C@H]4[C@@H](OC)C[C@H](O[C@@H]5[C@@H](C)O[C@@]6(C[C@H]5OC)OCO[C@@H]5C[C@H](O[C@@H](C)[C@@]7(O)CC[C@H]8[C@@H]9CC=C%10C[C@@H](O)CC[C@]%10(C)[C@H]9CC[C@@]87C)O[C@H](C)[C@H]5O6)O[C@@H]4C)O[C@@H]3C)O[C@@H]2C)[C@@H]1OC(C)=O`: the half-maximal cytotoxic concentration (CC50) in series [1] stood at 124 µM. Besides, the IC50 worked out at 1.13 µM in series [2] and 0.18 µM in the series with T-cell. Also, the selectivity ratio was found to be 110 in series [3] and 706 in series [4].
For `CO[C@H]1[C@@H](O)[C@@H](C)O[C@@H](O[C@H]2[C@@H](OC)C[C@H](O[C@H]3[C@@H](OC)C[C@H](O[C@H]4[C@@H](OC)C[C@H](O[C@@H]5[C@@H](C)O[C@@]6(C[C@H]5OC)OCO[C@@H]5C[C@H](O[C@@H](C)[C@@]7(O)CC[C@H]8[C@@H]9CC=C%10C[C@@H](OC=O)CC[C@]%10(C)[C@H]9CC[C@@]87C)O[C@H](C)[C@H]5O6)O[C@@H]4C)O[C@@H]3C)O[C@@H]2C)[C@@H]1O` the same measures were 146 µM, 0.86 µM, 0.42 µM, 170 and 347.
For `CO[C@H]1C[C@H](O[C@H]2[C@@H](OC)C[C@H](O[C@H]3[C@H](O)C[C@H](O[C@H]4[C@@H](O)C[C@H](O[C@@H]5[C@@H](C)O[C@@]6(C[C@H]5OC)OCO[C@@H]5C[C@H](O[C@@H](C)[C@@]7(O)CC[C@H]8[C@@H]9CC=C%10C[C@@H](O)CC[C@]%10(C)[C@H]9CC[C@@]87C)O[C@H](C)[C@H]5O6)O[C@@H]4C)O[C@@H]3C)O[C@@H]2C)O[C@H](C)[C@H]1OC(C)=O` the same measures were > 200 µM, 1.74 µM, 1.47 µM, > 145 and > 136.
For the molecule `CO[C@H]1[C@@H](O)[C@@H](C)O[C@@H](O[C@H]2[C@@H](OC)C[C@H](O[C@H]3[C@@H](OC)C[C@H](O[C@H]4[C@@H](O)C[C@H](O[C@@H]5[C@@H](C)O[C@@]6(C[C@H]5OC)OCO[C@@H]5C[C@H](O[C@@H](C)[C@@]7(O)CC[C@H]8[C@@H]9CC=C%10C[C@@H](O)CC[C@]%10(C)[C@H]9CC[C@@]87C)O[C@H](C)[C@H]5O6)O[C@@H]4C)O[C@@H]3C)O[C@@H]2C)[C@@H]1O`, the CC50 in series [1] was > 200 µM. In addition, the IC50 in series [2] worked out at 0.75 µM; in the series with T-cell, 0.47 µM. The values for the selectivity ratio in series [3] and in series [4] were > 267 and > 426, respectively.
